For this assay, the target named is Integrin alpha-4/beta-1 (Homo sapiens, UniProt P05556+P13612, T112H). Kind of assay: Jurkat Cell Adhesion Inhibition Assay. How it is done:
Binding affinities (IC50) of the ligands were studied in a Jurkat cell adhesion assay by inhibiting the alpha-4/beta-1 mediated cell adhesion to CS-1 peptides. The 96-well plates were coated with neutravidin, followed by biotinconjugated CS-1 peptides. Jurkat cells with series dilutions of tested ligands in binding buffer were added and allowed to bind for 30 min. Bound cells were recorded using a 96-well plate reader at 570 nm. IC50 values were calculated from inhibition curves resulting from the concentration-dependent inhibition

*1 amine or outer side, *2 acyl side, *3 side chain or, on linkers, in order; H or OH if unused. Where a SMILES comes first, the peptide text is derived from it. [ ]: non-standard residue; d: D form. The star is where a group is joined. ξ: configuration not given here. Phac(3-amino) = O=C(Cc1cccc(N[*:1])c1)[*:2]; X5 = O=C(c1ccc(-c2ccc(N[*:1])cc2)o1)[*:2]; X7 = O=C(c1ccc(-c2cccc(N[*:1])c2)o1)[*:2]; X13 = CC(C(=O)[*:2])c1ccc(N[*:1])cc1; X2 = O=C(/C=C/c1ccc(N[*:1])cc1)[*:2]; NH(2,6-Me2-phenyl) = Cc1cccc(C)c1N*; X3 = O=C(CCCc1ccc(N[*:1])cc1)[*:2]; X9 = Cc1ccccc1NC(=O)Nc1cccc(N*)c1; X1 = O=C(Cc1ccc(N[*:1])cc1)[*:2]; X8 = O=C(COc1ccccc1N[*:1])[*:2]; Ile(3ξ) = CCC(C)[C@H](N)C(=O)O; X4 = O=C(Cc1ccccc1N[*:1])[*:2]; NH(2-Me-phenyl) = Cc1ccccc1N*; X12 = c1ccc(Oc2ccccc2N*)cc1; β3hP = O=C(O)C[C@@H]1CCCN1; 4Abz = Nc1ccc(C(=O)O)cc1; Nle = CCCC[C@H](N)C(=O)O; X11 = CC(C)c1ccccc1N*; CO = O=C([*:1])[*:2]

Compound `CCCC[C@H](NC(=O)Cc1ccc(NC(=O)Nc2ccccc2C)cc1)C(=O)N[C@@H](CC(=O)O)C(=O)N[C@H](C(=O)N1CCC[C@@H]1C(N)=O)C(C)CC` (stereo partly drawn) [(3S)-3-{[(2S,3S)-1-[(2R)-2-carbamoylpyrrolidin-1-yl]-3-methyl-1-oxopentan-2-yl]carbamoyl}-3-[(2S)-2-[1-(4-{[(2-methylphenyl)carbamoyl]amino}phenyl)acetamido]hexanamido]propanoic acid] came in with an IC50 (pH 7.5, 22 °C) of 2.9 nM.

Where the note is “pH 7.5, 22 °C”, `CCCC[C@H](NC(=O)Cc1ccc(NC(=O)Nc2ccccc2C)cc1)C(=O)N[C@@H](CC(=O)O)C(=O)N[C@H](C(=O)N1CCC[C@H]1CC(N)=O)C(C)CC` (stereo partly drawn) [(3S)-3-{[(2S,3S)-1-[(2S)-2-(carbamoylmethyl)pyrrolidin-1-yl]-3-methyl-1-oxopentan-2-yl]carbamoyl}-3-[(2S)-2-[1-(4-{[(2-methylphenyl)carbamoyl]amino}phenyl)acetamido]hexanamido]propanoic acid] ({NH(2-Me-phenyl)-CO}-[X1][Nle]D[Ile(3ξ)][β3hP]-NH2) came in with an IC50 of 3.1 nM.

The compound `CCCC[C@H](NC(=O)Cc1ccc(NC(=O)Nc2ccccc2C)cc1)C(=O)N[C@@H](CC(=O)O)C(=O)N[C@H](C(=O)N1CC(O)C[C@H]1C(N)=O)C(C)CC` (stereo partly drawn) [(3S)-3-{[(2S,3S)-1-[(2S)-2-carbamoyl-4-hydroxypyrrolidin-1-yl]-3-methyl-1-oxopentan-2-yl]carbamoyl}-3-[(2S)-2-[1-(4-{[(2-methylphenyl)carbamoyl]amino}phenyl)acetamido]hexanamido]propanoic acid] came in with a 50% inhibitory concentration (IC50) (pH 7.5, 22 °C) of 3 nM.

Consider `CCCC[C@H](NC(=O)Cc1ccc(NC(=O)Nc2ccccc2C)cc1)C(=O)N[C@@H](CC(=O)O)C(=O)N[C@H](C(=O)N1CCCC[C@H]1C(N)=O)C(C)CC` (stereo partly drawn) [(3S)-3-{[(2S,3S)-1-[(2S)-2-carbamoylpiperidin-1-yl]-3-methyl-1-oxopentan-2-yl]carbamoyl}-3-[(2S)-2-[1-(4-{[(2-methylphenyl)carbamoyl]amino}phenyl)acetamido]hexanamido]propanoic acid], for which 1.4 nM corresponded to half-maximal inhibition (pH 7.5, 22 °C) (IC50). Regarding `CCCC[C@H](NC(=O)Cc1ccccc1NC(=O)Nc1ccccc1C)C(=O)N[C@@H](CC(=O)O)C(=O)N[C@H](C(=O)N1CCC[C@H]1C(N)=O)C(C)CC` (stereo partly drawn) [(3S)-3-{[(2S,3S)-1-[(2S)-2-carbamoylpyrrolidin-1-yl]-3-methyl-1-oxopentan-2-yl]carbamoyl}-3-[(2S)-2-[1-(2-{[(2-methylphenyl)carbamoyl]amino}phenyl)acetamido]hexanamido]propanoic acid] ({NH(2-Me-phenyl)-CO}-[X4][Nle]D[Ile(3ξ)]P-NH2), the IC50 was found to be 3000 nM. That is a single-digit micromolar value. `CCCC[C@H](NC(=O)Cc1cccc(NC(=O)Nc2ccccc2C)c1)C(=O)N[C@@H](CC(=O)O)C(=O)N[C@H](C(=O)N1CCC[C@H]1C(N)=O)C(C)CC` (stereo partly drawn) [(3S)-3-{[(2S,3S)-1-[(2S)-2-carbamoylpyrrolidin-1-yl]-3-methyl-1-oxopentan-2-yl]carbamoyl}-3-[(2S)-2-[1-(3-{[(2-methylphenyl)carbamoyl]amino}phenyl)acetamido]hexanamido]propanoic acid] ({NH(2-Me-phenyl)-CO}-[Phac(3-amino)][Nle]D[Ile(3ξ)]P-NH2) came in with an IC50 of 140 nM. With `CCCC[C@H](NC(=O)Cc1ccc(NC(=O)Nc2c(C)cccc2C)cc1)C(=O)N[C@@H](CC(=O)O)C(=O)N[C@H](C(=O)N1CCC[C@H]1C(N)=O)C(C)CC` (stereo partly drawn) [(3S)-3-{[(2S,3S)-1-[(2S)-2-carbamoylpyrrolidin-1-yl]-3-methyl-1-oxopentan-2-yl]carbamoyl}-3-[(2S)-2-[1-(4-{[(2,6-dimethylphenyl)carbamoyl]amino}phenyl)acetamido]hexanamido]propanoic acid] ({NH(2,6-Me2-phenyl)-CO}-[X1][Nle]D[Ile(3ξ)]P-NH2), the midpoint of inhibition, the IC50, lay at 7.2 nM.

`CCCC[C@H](NC(=O)Cc1ccc(NC(=O)Nc2ccccc2C)cc1)C(=O)N[C@@H](CC(=O)O)C(=O)N[C@H](C(=O)N1CCC[C@H]1C(N)=O)C(C)CC` (stereo partly drawn) [(3S)-3-{[(2S,3S)-1-[(2S)-2-carbamoylpyrrolidin-1-yl]-3-methyl-1-oxopentan-2-yl]carbamoyl}-3-[(2S)-2-[1-(4-{[(2-methylphenyl)carbamoyl]amino}phenyl)acetamido]hexanamido]propanoic acid]: 1.4 nM corresponded to half-maximal inhibition (pH 7.5, 22 °C) (IC50). `CCCC[C@H](NC(=O)Cc1ccc(NC(=O)Nc2ccccc2Oc2ccccc2)cc1)C(=O)N[C@@H](CC(=O)O)C(=O)N[C@H](C(=O)N1CCC[C@H]1C(N)=O)C(C)CC` (stereo partly drawn) [(3S)-3-{[(2S,3S)-1-[(2S)-2-carbamoylpyrrolidin-1-yl]-3-methyl-1-oxopentan-2-yl]carbamoyl}-3-[(2S)-2-[1-(4-{[(2-phenoxyphenyl)carbamoyl]amino}phenyl)acetamido]hexanamido]propanoic acid] ({X12-CO}-[X1][Nle]D[Ile(3ξ)]P-NH2) yielded an IC50 of 500 nM. `CCCC[C@H](NC(=O)COc1ccccc1NC(=O)Nc1ccccc1C)C(=O)N[C@@H](CC(=O)O)C(=O)N[C@H](C(=O)N1CCC[C@H]1C(N)=O)C(C)CC` (stereo partly drawn) [(3S)-3-{[(2S,3S)-1-[(2S)-2-carbamoylpyrrolidin-1-yl]-3-methyl-1-oxopentan-2-yl]carbamoyl}-3-[(2S)-2-[2-(2-{[(2-methylphenyl)carbamoyl]amino}phenoxy)acetamido]hexanamido]propanoic acid] ({NH(2-Me-phenyl)-CO}-[X8][Nle]D[Ile(3ξ)]P-NH2) returned an IC50 of 463 nM. On the same count and under the same terms, to `CCCC[C@H](NC(=O)C(C)c1ccc(NC(=O)Nc2ccccc2C)cc1)C(=O)N[C@@H](CC(=O)O)C(=O)N[C@H](C(=O)N1CCC[C@H]1C(N)=O)C(C)CC` (stereo partly drawn) [(3S)-3-{[(2S,3S)-1-[(2S)-2-carbamoylpyrrolidin-1-yl]-3-methyl-1-oxopentan-2-yl]carbamoyl}-3-[(2S)-2-[2-(4-{[(2-methylphenyl)carbamoyl]amino}phenyl)propanamido]hexanamido]propanoic acid] ({NH(2-Me-phenyl)-CO}-[X13][Nle]D[Ile(3ξ)]P-NH2) belongs 3.1 nM; to `CCCC[C@H](NC(=O)CCCc1ccc(NC(=O)Nc2ccccc2C)cc1)C(=O)N[C@@H](CC(=O)O)C(=O)N[C@H](C(=O)N1CCC[C@H]1C(N)=O)C(C)CC` (stereo partly drawn) [(3S)-3-{[(2S,3S)-1-[(2S)-2-carbamoylpyrrolidin-1-yl]-3-methyl-1-oxopentan-2-yl]carbamoyl}-3-[(2S)-2-[4-(4-{[(2-methylphenyl)carbamoyl]amino}phenyl)butanamido]hexanamido]propanoic acid] ({NH(2-Me-phenyl)-CO}-[X3][Nle]D[Ile(3ξ)]P-NH2), 100 nM. Still for that read-out and setting: the same measure for `CCCC[C@H](NC(=O)/C=C/c1ccc(NC(=O)Nc2ccccc2C)cc1)C(=O)N[C@@H](CC(=O)O)C(=O)N[C@H](C(=O)N1CCC[C@H]1C(N)=O)C(C)CC` (stereo partly drawn) [(3S)-3-{[(2S,3S)-1-[(2S)-2-carbamoylpyrrolidin-1-yl]-3-methyl-1-oxopentan-2-yl]carbamoyl}-3-[(2S)-2-[(2E)-3-(4-{[(2-methylphenyl)carbamoyl]amino}phenyl)prop-2-enamido]hexanamido]propanoic acid] ({NH(2-Me-phenyl)-CO}-[X2][Nle]D[Ile(3ξ)]P-NH2): 4.4 nM. Regarding `CCCC[C@H](NC(=O)c1ccc(NC(=O)Nc2ccccc2C)cc1)C(=O)N[C@@H](CC(=O)O)C(=O)N[C@H](C(=O)N1CCC[C@H]1C(N)=O)C(C)CC` (stereo partly drawn) [(3S)-3-{[(2S,3S)-1-[(2S)-2-carbamoylpyrrolidin-1-yl]-3-methyl-1-oxopentan-2-yl]carbamoyl}-3-[(2S)-2-[(4-{[(2-methylphenyl)carbamoyl]amino}phenyl)formamido]hexanamido]propanoic acid] ({NH(2-Me-phenyl)-CO-4Abz}-[Nle]D[Ile(3ξ)]P-NH2), inhibition was half-maximal at 3000 nM (IC50). Compared with the last compound, the IC50 is about 680-fold higher. In turn, `CCCC[C@H](NC(=O)Cc1ccc(NC(=O)Nc2ccccc2C(C)C)cc1)C(=O)N[C@@H](CC(=O)O)C(=O)N[C@H](C(=O)N1CCC[C@H]1C(N)=O)C(C)CC` (stereo partly drawn) [(3S)-3-{[(2S,3S)-1-[(2S)-2-carbamoylpyrrolidin-1-yl]-3-methyl-1-oxopentan-2-yl]carbamoyl}-3-[(2S)-2-{1-[4-({[2-(propan-2-yl)phenyl]carbamoyl}amino)phenyl]acetamido}hexanamido]propanoic acid] ({X11-CO}-[X1][Nle]D[Ile(3ξ)]P-NH2) gave an IC50 of 531 nM. In the case of `CCCC[C@H](NC(=O)c1ccc(-c2cccc(NC(=O)Nc3ccccc3C)c2)o1)C(=O)N[C@@H](CC(=O)O)C(=O)N[C@H](C(=O)N1CCC[C@H]1C(N)=O)C(C)CC` (stereo partly drawn) [(3S)-3-{[(2S,3S)-1-[(2S)-2-carbamoylpyrrolidin-1-yl]-3-methyl-1-oxopentan-2-yl]carbamoyl}-3-[(2S)-2-{[5-(3-{[(2-methylphenyl)carbamoyl]amino}phenyl)furan-2-yl]formamido}hexanamido]propanoic acid] ({NH(2-Me-phenyl)-CO}-[X7][Nle]D[Ile(3ξ)]P-NH2), half-maximal inhibition (IC50) was put at 325 nM. This IC50 is about 1.6-fold lower than that of the compound before. Regarding `CCCC[C@H](NC(=O)c1ccc(-c2ccc(NC(=O)Nc3ccccc3C)cc2)o1)C(=O)N[C@@H](CC(=O)O)C(=O)N[C@H](C(=O)N1CCC[C@H]1C(N)=O)C(C)CC` (stereo partly drawn) [(3S)-3-{[(2S,3S)-1-[(2S)-2-carbamoylpyrrolidin-1-yl]-3-methyl-1-oxopentan-2-yl]carbamoyl}-3-[(2S)-2-{[5-(4-{[(2-methylphenyl)carbamoyl]amino}phenyl)furan-2-yl]formamido}hexanamido]propanoic acid] ({NH(2-Me-phenyl)-CO}-[X5][Nle]D[Ile(3ξ)]P-NH2), the IC50 turned out to be 340 nM.

Turning to `CCCC[C@H](NC(=O)Nc1cccc(NC(=O)Nc2ccccc2C)c1)C(=O)N[C@@H](CC(=O)O)C(=O)N[C@H](C(=O)N1CCC[C@H]1C(N)=O)C(C)CC` (stereo partly drawn) [(3S)-3-{[(2S,3S)-1-[(2S)-2-carbamoylpyrrolidin-1-yl]-3-methyl-1-oxopentan-2-yl]carbamoyl}-3-[(2S)-2-{[(3-{[(2-methylphenyl)carbamoyl]amino}phenyl)carbamoyl]amino}hexanamido]propanoic acid] ({X9-CO}-[Nle]D[Ile(3ξ)]P-NH2), the IC50 is 3080 nM.

Values taken from BindingDB's records for doi:10.1002/bip.20588 (University of California Davis, 2006).
